Reference: US11459327B1, “Cycloalkyl and hetero-cycloalkyl inhibitors, preparation methods therefor, and use thereof” (Suzhou Zelgen Biopharmaceuticals Co., Ltd., priority 2019, dated 2022)

Tested on: NCI-H358(KRAS^G12C mutation) cells
Test: Cell assay of antiproliferative activity (Celltiter-Glo, 5 days) against NCI-H358 cells
Type: cell-based
Settings: 5 days incubation
Protocol: Cell assay of antiproliferative activity of compounds against NCI-H358(KRAS^G12C mutation) and A549(KRAS^G12S mutation) cells.
40 μl phosphate buffer was added to the outer wells of the 384 microplate, and 40 μl cell suspension to be tested was added to the other wells. Then the microplate was incubated in a carbon dioxide incubator overnight.
The compounds to be tested were gradiently diluted, each compound was performed 10 concentration gradients (diluted from 50 μM to 0.003 μM) and added 100 nL to the corresponding wells in the microplate. After addition, 40 μl of phosphate buffer was added to each well in rows A and P and columns 1 and 24, and then the microplate was incubated in a carbon dioxide incubator for 5 days.
20 μL of Promega Celltiter-Glo reagent was added to each well of the microplate, and then the luminescence signal was stabilized by oscillating at room temperature for 10 min. Then PekinElmer Envision multi-label analyzer was used to read.
Finally, GraphPad Prism software was used to calculate the IC50 value of the compound and the fitting curve was drawn.
Anti-proliferative activity of the compounds of the present invention against NCI-H358(KRAS^G12C mutation) and A549(KRAS^G12S mutation) cells were shown in Table 1.

Structure (SMILES) | IC50 [nM]
C=C(F)C(=O)N1CCN(c2nc(OCC3(C(C)N(C)C)CC3)nc3c2CCN(c2cccc4cccc(Cl)c24)C3)C[C@@H]1CC#N (stereo partly drawn) [Example 47A, 2-((2S)-4-(7-(8-chloronaphthalen-1-yl)-2-((1-(1-(dimethylamino)ethyl)cyclopropyl)methoxy)-5,6,7,8-tetrahydropyrido[3,4-d]pyrimidin-4-yl)-1-(2-fluoroacroloyl)piperazin-2-yl) acetonitrile] | 100
C=C(F)C(=O)N1CCN(c2nc(OCC3(C(C)N(C)C)CC3)nc3c2CCN(c2cccc4cccc(Cl)c24)C3)C[C@@H]1CC#N (stereo partly drawn) [Example 47B, 2-((2S)-4-(7-(8-chloronaphthalen-1-yl)-2-((1-(1-(dimethylamino)ethyl)cyclopropyl)methoxy)-5,6,7,8-tetrahydropyrido[3,4-d]pyrimidin-4-yl)-1-(2-fluoroacroloyl)piperazin-2-yl) acetonitrile] | 71
C=C(F)C(=O)N1CCN(c2nc(OCC3(C(C)N(C)C)CC3)nc3c2CCN(c2cccc4cccc(Cl)c24)C3)C[C@@H]1CC#N (stereo partly drawn) [Example 53A, 2-((2S)-4-(7-(8-chloronaphthalen-1-yl)-2-(1-(1-((dimethylamino)ethyl)cyclopropyl)methoxy)-5,6,7,8-tetrahydropyrido[3,4-d]pyrimidin-4-yl)-1-(2-fluoroacroloyl)piperazin-2-yl) acetonitrile] | 1400
C=C(F)C(=O)N1CCN(c2nc(OCC3(C(C)N(C)C)CC3)nc3c2CCN(c2cccc4cccc(Cl)c24)C3)C[C@@H]1CC#N (stereo partly drawn) [Example 53B, 2-((2S)-4-(7-(8-chloronaphthalen-1-yl)-2-(1-(1-((dimethylamino)ethyl)cyclopropyl)methoxy)-5,6,7,8-tetrahydropyrido[3,4-d]pyrimidin-4-yl)-1-(2-fluoroacroloyl)piperazin-2-yl) acetonitrile] | 1300
C=CC(=O)N1CCN(c2nc(OCCN(C)CC3(F)CC3)nc3c2CCN(c2cccc4cccc(C)c24)C3)CC1CC#N (stereo not shown) [Example 80, 2-(1-acroloyl-4-(2-(2-(((1-fluorocyclopropyl)methyl) (methyl)amino)ethoxy)-7-(8-methylnaphthalen-1-yl)-5,6,7,8-tetrahydropyrido[3,4-d]pyrimidin-4-yl)piperazin-2-yl) acetonitrile] | < 100

Same assay, conditions: Homo sapiens, NCI-H358, 120 h, 5 days incubation

Structure (SMILES) | IC50 [nM]
C=C(F)C(=O)N1CCN(c2nc(OCC3(CN4CCC4)CC3)nc3c2CCN(c2cccc4cccc(Cl)c24)C3)C[C@@H]1CC#N [Example 48] | 65
CC#CC(=O)N1CCN(c2nc(OCC3(CN(C)C)CC3)nc3c2CCN(c2cccc4cccc(Cl)c24)C3)C[C@@H]1CC#N [Example 49, (S)-2-(1-(but-2-ynoyl)-4-(7-(8-chloronaphthalen-1-yl)-2-((1-((dimethylamino)methyl)cyclopropyl)methoxyl)-5,6,7,8-tetrahydropyrido[3,4-d]pyrimidin-4-yl)piperazin-2-yl) acetonitrile] | 43
C=CC(=O)N1CCN(c2nc(OCC3(CN(C)C)CC3)nc3c2CCN(c2cccc4cccc(Cl)c24)C3)[C@@H](C)C1 [Example 50, (S)-1-(-4-(7-(8-chloronaphthalen-1-yl)-2-((1-((dimethylamino)methyl)cyclopropyl)methoxyl)-5,6,7,8-tetrahydropyrido[3,4-d]pyrimidin-4-yl)-3-methylpiperazin-1-yl)prop-2-ene-1-one] | 300
C=C(F)C(=O)N1CCN(c2nc(OCC3(CCN(C)C)CC3)nc3c2CCN(c2cccc4cccc(Cl)c24)C3)C[C@@H]1CC#N [Example 52, (S)-2-(4-(7-(8-chloronaphthalen-1-yl)-2-((1-(2-(dimethylamino)ethyl)cyclopropyl)methoxy)-5,6,7,8-tetrahydropyrido[3,4-d]pyrimidin-4-yl)-1-(2-fluoroacroloyl)piperazin-2-yl) acetonitrile] | 540
C=C(F)C(=O)N1CCN(c2nc(OCC3(CN(C)CC)CC3)nc3c2CCN(c2cccc4cccc(Cl)c24)C3)C[C@@H]1CC#N [Example 54, (S)-2-(4-(7-(8-chloronaphthalen-1-yl)-2-((1-((ethyl (methyl)amino)methyl)cyclopropyl)methoxy)-5,6,7,8-tetrahydropyrido[3,4-d]pyrimidin-4-yl)-1-(2-fluoroacroloyl)piperazin-2-yl) acetonitrile] | 47
C=C(F)C(=O)N1CCN(c2nc(OCCN(C)C34CC(C3)C4)nc3c2CCN(c2cccc4cccc(Cl)c24)C3)C[C@@H]1CC#N [Example 55] | 870
C=C(F)C(=O)N1CCN(c2nc(OCC3(CN(C)C(C)C)CC3)nc3c2CCN(c2cccc4cccc(Cl)c24)C3)C[C@@H]1CC#N [Example 56, (S)-2-(4-(7-(8-chloronaphthalen-1-yl)-2-((1-((isopropyl(methyl)amino)methyl)cyclopropyl)methoxy)-5,6,7,8-tetrahydropyrido[3,4-d]pyrimidin-4-yl)-1-(2-fluoroacroloyl)piperazin-2-yl) acetonitrile] | 61
C=C(F)C(=O)N1CCN(c2nc(OCC3(CS(C)(=O)=O)CC3)nc3c2CCN(c2cccc4cccc(Cl)c24)C3)C[C@@H]1CC#N [Example 57, (S)-2-(4-(7-(8-chloronaphthalen-1-yl)-2-((1-((methylsulfonyl)methyl)cyclopropyl)methoxy)-5,6,7,8-tetrahydropyrido[3,4-d]pyrimidin-4-yl)-1-(2-fluoroacroloyl)piperazin-2-yl) acetonitrile] | 1300
C=C(F)C(=O)N1CCN(c2nc(OCC3(CN4CCC4)CC3)nc3c2CCN(c2cccc4ccc(F)c(Cl)c24)C3)C[C@@H]1CC#N [Example 58, (S)-2-(4-(2-((1-(azetidin-1-ylmethyl)cyclopropyl)methoxy)-7-(8-chloro-7-fluoronaphthalen-1-yl)-5,6,7,8-tetrahydropyrido[3,4-d]pyrimidin-4-yl)-1-(2-fluoroacroloyl)piperazin-2-yl) acetonitrile] | 65
C=C(F)C(=O)N1CCN(c2nc(OCC3(CN4CC(F)(F)C4)CC3)nc3c2CCN(c2cccc4ccc(F)c(Cl)c24)C3)C[C@@H]1CC#N [Example 59] | 810
C=C(F)C(=O)N1CCN(c2nc(OCC3(CN(CC)CC)CC3)nc3c2CCN(c2cccc4ccc(F)c(Cl)c24)C3)C[C@@H]1CC#N [Example 60, (S)-2-(4-(7-(8-chloro-7-fluoronaphthalen-1-yl)-2-((1-((diethylamino)methyl)cyclopropyl)methoxy)-5,6,7,8-tetrahydropyrido[3,4-d]pyrimidin-4-yl)-1-(2-fluoroacroloyl)piperazin-2-yl) acetonitrile] | 92
C=C(F)C(=O)N1CCN(c2nc(OCC3(CN(C)C(C)C)CC3)nc3c2CCN(c2cccc4ccc(F)c(Cl)c24)C3)C[C@@H]1CC#N [Example 61, (S)-2-(4-(7-(8-chloro-7-fluoronaphthalen-1-yl)-2-((1-((isopropyl(methyl)amino)methyl)cyclopropyl)methoxy)-5,6,7,8-tetrahydropyrido [3,4-d]pyrimidin-4-yl)-1-(2-fluoroacroloyl)piperazin-2-yl) acetonitrile] | 110
C=C(F)C(=O)N1CCN(c2nc(OCC3(CN(C)CC)CC3)nc3c2CCN(c2cccc4ccc(F)c(Cl)c24)C3)C[C@@H]1CC#N [Example 62, (S)-2-(4-(7-(8-chloro-7-fluoronaphthalen-1-yl)-2-((1-((ethyl(methyl)amino)methyl)cyclopropyl)methoxy)-5,6,7,8-tetrahydropyrido[3,4-d]pyrimidin-4-yl)-1-(2-fluoroacroloyl)piperazin-2-yl) acetonitrile] | 36
[2H]C([2H])([2H])N(CC1(COc2nc3c(c(N4CCN(C(=O)C(=C)F)[C@@H](CC#N)C4)n2)CCN(c2cccc4ccc(F)c(Cl)c24)C3)CC1)C([2H])([2H])[2H] [Example 63] | 7
C=C(F)C(=O)N1CCN(c2nc(OCC3(CN4CC(F)C4)CC3)nc3c2CCN(c2cccc4ccc(F)c(Cl)c24)C3)C[C@@H]1CC#N [Example 65, (S)-2-(4-(7-(8-chloro-7-fluoronaphthalen-1-yl)-2-((1-((3-fluoroazetidin-1-yl)methyl)cyclopropyl)methoxy)-5,6,7,8-tetrahydropyrido[3,4-d]pyrimidin-4-yl)-1-(2-fluoroacroloyl)piperazin-2-yl) acetonitrile] | 45
C=C(F)C(=O)N1CCN(c2nc(OCC3(CN4CC(F)C4)CC3)nc3c2CCN(c2cccc4ccc(F)cc24)C3)C[C@@H]1CC#N [Example 66] | 180
C=C(F)C(=O)N1CCN(c2nc(OCC3(CN4CC(C)C4)CC3)nc3c2CCN(c2cccc4ccc(F)c(Cl)c24)C3)C[C@@H]1CC#N [Example 67, (S)-2-(4-(7-(8-chloro-7-fluoronaphthalen-1-yl)-2-((1-((3-methylazetidin-1-yl)methyl)cyclopropyl)methoxy)-5,6,7,8-tetrahydropyrido[3,4-d]pyrimidin-4-yl)-1-(2-fluoroacroloyl)piperazin-2-yl) acetonitrile] | 51
C=C(F)C(=O)N1CCN(c2nc(OCC3(CN4CC(O)C4)CC3)nc3c2CCN(c2cccc4ccc(F)c(Cl)c24)C3)C[C@@H]1CC#N [Example 68, (S)-2-(4-(7-(8-chloro-7-fluoronaphthalen-1-yl)-2-((1-((3-hydroxyazetidin-1-yl)methyl)cyclopropyl)methoxy)-5,6,7,8-tetrahydropyrido [3,4-d]pyrimidin-4-yl)-1-(2-fluoroacroloyl)piperazin-2-yl) acetonitrile] | 86
C=C(F)C(=O)N1CCN(c2nc(OCC3(CN(C)CCOC)CC3)nc3c2CCN(c2cccc4cccc(Cl)c24)C3)C[C@@H]1CC#N [Example 69] | 59
C=CC(=O)N1CCN(c2nc(OCCN(C)C3CC(F)(F)C3)nc3c2CCN(c2cccc4cccc(C)c24)C3)CC1CC#N (stereo not shown) [Example 85] | < 100
